Measured values published in PubChem BioAssay (NCI).
Values joined by “and” are separate entries in the source; they are usually repeats but may differ in a detail not shown here. Equal entries are not always repeated.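 Five compound concentrations were applied to cells in 96-well plates for 48 hours; endpoints were derived by simple linear interpolation of the resulting dose-response curve. The concentration for 50% growth inhibition is given as GI50. At the TGI there is no net growth.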

The compounds below were run on HS 578T breast (assay: NCI anticancer screen, dose series, 48 h).

Structure (SMILES) | GI50 [µM] | TGI [µM]
C[n+]1c(/C=C/c2c(O)ccc3ccccc23)ccc2ccccc21 | 5.3 | 21.5
O=C(NCP(=O)(Oc1ccccc1)Oc1ccccc1)OCc1ccccc1 |  | > 100
Cc1c(/C=N\NC(=S)NCCNC(=S)N/N=C\c2c(C)n(C)n(-c3ccccc3)c2=O)c(=O)n(-c2ccccc2)n1C |  | > 100
O=P(O)(O)C(N=C(Nc1ccccc1)Nc1ccccc1)P(=O)(O)O |  | > 100
C=CCn1c(=O)c(C(=O)Nc2nc(C34CC5CC(CC(C5)C3)C4)cs2)c(O)c2ccccc21 |  | > 100
CCOC(=O)c1c(-c2ccc(O)c(OC)c2)c(C#N)c(=S)n(C2OC(CO)C(O)C(O)C2O)c1-c1ccccc1 (configuration not stated) |  | > 100
C=C1CC(C#N)(C#N)[C@H]2C3CCCC3C[C@@H]12 (some centres not stated) (tested in a mixture with another compound) |  | > 100
COC(C)(C)C1(O)CC[C@@H](C)CC1=O (some centres not stated) |  | > 100

Each compound was assayed on MALME-3M melanoma (assay: NCI anticancer screen, dose series, 48 h).

Structure (SMILES) | TGI | GI50 [µM]
Cc1ccc(/C=N\NC2c3cc(Cl)ccc3Nc3nc(=O)[nH]c(C)c32)cc1 (configuration not stated) | > 100 µM | 
O=C(O)COc1ccccc1C(=O)Nc1ccccc1 | > 100 µM | 
O=C1CC2(CCC(O)(c3ccc4ccccc4c3)C(C(=O)c3ccc4ccccc4c3)C2)C(=O)c2ccccc2N1 (configuration not stated) | > 100 µM | 
COc1cc2c(cc1OC)C(C(c1ccccc1)c1ccccc1)N(C)CC2 (configuration not stated) | 56.2 µM | 
CCOC(=O)N1CCC(N[C@@H]2c3cc4c(cc3C(c3cc(OC)c(O)c(OC)c3)C3C(=O)OC[C@@H]32)OCO4)CC1 (some centres not stated) | 9.79 µM and 9.69 µM | 
C[N+](C)([O-])CCOc1cc2c(c3ccccc13)-c1ccccc1C2=O | 28.9 µM | 
CCOC(=O)C1S/C(=N\C(=N)N[N+](=O)[O-])N=C1C (configuration not stated) | > 100 µM | 
CCCCCCCCCCCCCCCCNc1cccc2ccccc12 | > 100 µM | 
O=C1OCC/C1=N/O | > 100 µM | 
CC(O)CNC(=O)C(C)Oc1ccc(OCC2CCCCC2)cc1 (configuration not stated) | > 100 µM | 
CSC1=N/C(=C\c2ccc(C)cc2)C(=O)N1CN1CCCCC1 | > 100 µM | 
C[n+]1c(/C=C/c2c(O)ccc3ccccc23)ccc2ccccc21 | 12.7 µM | 5.3
O=C(NCP(=O)(Oc1ccccc1)Oc1ccccc1)OCc1ccccc1 | > 100 µM | 
Cc1c(/C=N\NC(=S)NCCNC(=S)N/N=C\c2c(C)n(C)n(-c3ccccc3)c2=O)c(=O)n(-c2ccccc2)n1C | > 100 µM | 
O=P(O)(O)C(N=C(Nc1ccccc1)Nc1ccccc1)P(=O)(O)O | > 100 µM | 
C=CCn1c(=O)c(C(=O)Nc2nc(C34CC5CC(CC(C5)C3)C4)cs2)c(O)c2ccccc21 | > 100 µM | 
COC(C)(C)C1(O)CC[C@@H](C)CC1=O (some centres not stated) | > 100 µM | 

What follows are compounds tested on T-47D breast (assay: NCI anticancer screen, dose series, 48 h).

Structure (SMILES) | TGI [µM] | GI50 [µM]
CCOc1cc(/C=C2/C(C)=NN(c3cccc(Cl)c3)/C2=N/c2nc3ccccc3s2)ccc1O | > 100 | 
O=C1CC2(CCC(O)(c3ccc4ccccc4c3)C(C(=O)c3ccc4ccccc4c3)C2)C(=O)c2ccccc2N1 (configuration not stated) | > 100 | 
C[n+]1c(/C=C/c2c(O)ccc3ccccc23)ccc2ccccc21 | 14.7 | 4.32
O=C(NCP(=O)(Oc1ccccc1)Oc1ccccc1)OCc1ccccc1 | > 100 | 
Cc1c(/C=N\NC(=S)NCCNC(=S)N/N=C\c2c(C)n(C)n(-c3ccccc3)c2=O)c(=O)n(-c2ccccc2)n1C | > 100 | 
C=C1CC(C#N)(C#N)[C@H]2C3CCCC3C[C@@H]12 (some centres not stated) (tested in a mixture with another compound) | > 100 | 

Each compound was assayed on 786-0 renal (assay: NCI anticancer screen, dose series, 48 h).

Structure (SMILES) | TGI
Cc1ccc(/C=N\NC2c3cc(Cl)ccc3Nc3nc(=O)[nH]c(C)c32)cc1 (configuration not stated) | > 100 µM
CCOc1cc(/C=C2/C(C)=NN(c3cccc(Cl)c3)/C2=N/c2nc3ccccc3s2)ccc1O | > 100 µM
O=C(O)COc1ccccc1C(=O)Nc1ccccc1 | > 100 µM
CCOC(=O)N1CCC(N[C@@H]2c3cc4c(cc3C(c3cc(OC)c(O)c(OC)c3)C3C(=O)OC[C@@H]32)OCO4)CC1 (some centres not stated) | 2.94 µM and 4.8 µM
CCOC(=O)C1S/C(=N\C(=N)N[N+](=O)[O-])N=C1C (configuration not stated) | > 100 µM
CCCCCCCCCCCCCCCCNc1cccc2ccccc12 | > 100 µM
O=C1OCC/C1=N/O | > 100 µM
CC(O)CNC(=O)C(C)Oc1ccc(OCC2CCCCC2)cc1 (configuration not stated) | > 100 µM
CSC1=N/C(=C\c2ccc(C)cc2)C(=O)N1CN1CCCCC1 | > 100 µM
O=C(NCP(=O)(Oc1ccccc1)Oc1ccccc1)OCc1ccccc1 | > 100 µM
Cc1c(/C=N\NC(=S)NCCNC(=S)N/N=C\c2c(C)n(C)n(-c3ccccc3)c2=O)c(=O)n(-c2ccccc2)n1C | > 100 µM
O=P(O)(O)C(N=C(Nc1ccccc1)Nc1ccccc1)P(=O)(O)O | > 100 µM
C=CCn1c(=O)c(C(=O)Nc2nc(C34CC5CC(CC(C5)C3)C4)cs2)c(O)c2ccccc21 | > 100 µM
CCOC(=O)c1c(-c2ccc(O)c(OC)c2)c(C#N)c(=S)n(C2OC(CO)C(O)C(O)C2O)c1-c1ccccc1 (configuration not stated) | > 100 µM
C=C1CC(C#N)(C#N)[C@H]2C3CCCC3C[C@@H]12 (some centres not stated) (tested in a mixture with another compound) | 36.9 µM
COC(C)(C)C1(O)CC[C@@H](C)CC1=O (some centres not stated) | > 100 µM

Each compound was assayed on A498 renal (assay: NCI anticancer screen, dose series, 48 h).

Structure (SMILES) | TGI | GI50 [µM]
CCOc1cc(/C=C2/C(C)=NN(c3cccc(Cl)c3)/C2=N/c2nc3ccccc3s2)ccc1O | 56.9 µM | 
O=C1CC2(CCC(O)(c3ccc4ccccc4c3)C(C(=O)c3ccc4ccccc4c3)C2)C(=O)c2ccccc2N1 (configuration not stated) | > 100 µM | 
COc1cc2c(cc1OC)C(C(c1ccccc1)c1ccccc1)N(C)CC2 (configuration not stated) | > 100 µM | 
CCOC(=O)N1CCC(N[C@@H]2c3cc4c(cc3C(c3cc(OC)c(O)c(OC)c3)C3C(=O)OC[C@@H]32)OCO4)CC1 (some centres not stated) | 1.89 µM and 2.08 µM | 
C[N+](C)([O-])CCOc1cc2c(c3ccccc13)-c1ccccc1C2=O | 60.5 µM | 
CCOC(=O)C1S/C(=N\C(=N)N[N+](=O)[O-])N=C1C (configuration not stated) | > 100 µM | 
O=C1OCC/C1=N/O | > 100 µM | 
CC(O)CNC(=O)C(C)Oc1ccc(OCC2CCCCC2)cc1 (configuration not stated) | > 100 µM | 
CSC1=N/C(=C\c2ccc(C)cc2)C(=O)N1CN1CCCCC1 | > 100 µM | 
C[n+]1c(/C=C/c2c(O)ccc3ccccc23)ccc2ccccc21 | 9.43 µM | 2.34
Cc1c(/C=N\NC(=S)NCCNC(=S)N/N=C\c2c(C)n(C)n(-c3ccccc3)c2=O)c(=O)n(-c2ccccc2)n1C | > 100 µM | 
C=CCn1c(=O)c(C(=O)Nc2nc(C34CC5CC(CC(C5)C3)C4)cs2)c(O)c2ccccc21 | > 100 µM | 
CCOC(=O)c1c(-c2ccc(O)c(OC)c2)c(C#N)c(=S)n(C2OC(CO)C(O)C(O)C2O)c1-c1ccccc1 (configuration not stated) | > 100 µM | 
C=C1CC(C#N)(C#N)[C@H]2C3CCCC3C[C@@H]12 (some centres not stated) (tested in a mixture with another compound) | 48 µM | 
COC(C)(C)C1(O)CC[C@@H](C)CC1=O (some centres not stated) | > 100 µM | 

The compounds below were run on DU-145 prostate (assay: NCI anticancer screen, dose series, 48 h).

Structure (SMILES) | TGI [µM] | GI50 [µM]
CCOc1cc(/C=C2/C(C)=NN(c3cccc(Cl)c3)/C2=N/c2nc3ccccc3s2)ccc1O | > 100 | 
O=C1CC2(CCC(O)(c3ccc4ccccc4c3)C(C(=O)c3ccc4ccccc4c3)C2)C(=O)c2ccccc2N1 (configuration not stated) | > 100 | 
CSC1=N/C(=C\c2ccc(C)cc2)C(=O)N1CN1CCCCC1 | > 100 | 
C[n+]1c(/C=C/c2c(O)ccc3ccccc23)ccc2ccccc21 | 13.9 | 6.76
Cc1c(/C=N\NC(=S)NCCNC(=S)N/N=C\c2c(C)n(C)n(-c3ccccc3)c2=O)c(=O)n(-c2ccccc2)n1C | > 100 | 
O=P(O)(O)C(N=C(Nc1ccccc1)Nc1ccccc1)P(=O)(O)O | > 100 | 
C=CCn1c(=O)c(C(=O)Nc2nc(C34CC5CC(CC(C5)C3)C4)cs2)c(O)c2ccccc21 | > 100 | 
CCOC(=O)c1c(-c2ccc(O)c(OC)c2)c(C#N)c(=S)n(C2OC(CO)C(O)C(O)C2O)c1-c1ccccc1 (configuration not stated) | > 100 | 
C=C1CC(C#N)(C#N)[C@H]2C3CCCC3C[C@@H]12 (some centres not stated) (tested in a mixture with another compound) | > 100 | 
COC(C)(C)C1(O)CC[C@@H](C)CC1=O (some centres not stated) | > 100 | 

What follows are compounds tested on MDA-N (assay: NCI anticancer screen, dose series, 48 h).

Structure (SMILES) | TGI [µM]
CSC1=N/C(=C\c2ccc(C)cc2)C(=O)N1CN1CCCCC1 | > 100
O=P(O)(O)C(N=C(Nc1ccccc1)Nc1ccccc1)P(=O)(O)O | > 100
C=CCn1c(=O)c(C(=O)Nc2nc(C34CC5CC(CC(C5)C3)C4)cs2)c(O)c2ccccc21 | > 100
CCOC(=O)c1c(-c2ccc(O)c(OC)c2)c(C#N)c(=S)n(C2OC(CO)C(O)C(O)C2O)c1-c1ccccc1 (configuration not stated) | > 100
COC(C)(C)C1(O)CC[C@@H](C)CC1=O (some centres not stated) | > 100
